Columns and labels:
CL-1 cells [1] = assay: Calcification of CL-1 cells, Ca deposition per dish (O-CPC method); assay type: cell-based, mouse; conditions: 10^−9, 10^−8 or 10^−7 M; vs solvent control, on and after 2 weeks post confluent
Procedure: CL-1 cells were cultured on a 60-mm dish (CORNING) at a cell density of 2000 cells/cm^2. When cells reached to confluent, 1,25-dihydroxyvitamin D3 was added at a final concentration of 10^−9, 10^−8 or 10^−7 M, then samples were weekly collected for 4 weeks post confluent to determine the Ca content with time. Namely, cell layers were washed with Ca-Mg-free PBS three times, then harvested in a crucible with a cell scraper (Nunc), then dried in an incubator at 60° C., then burned overnight in an oven at 800° C., and the remaining ash was dissolved in 500 μl of 6N hydrochloric acid (Wako Pure Chemical Industries). The Ca content in this solution was determined by the O-CPC method (Ca test Wako, available from Wako Pure Chemical Industries) to calculate the Ca deposition per dish.

CL-1 cells [2] = assay: Differentiation of CL-1 cells into adipocytes, Oil red O-positive lipid droplets; assay type: cell-based, mouse
Procedure: Influences of 1,25-dihydroxyvitamin D3 known to inhibit conversion of a adipocyte precursor cell line 3T3-L1 into adipocytes (Comp. Biochem. Physiol. 96A, (1990)) on differentiation of CL-1 cells into adipocytes were examined. CL-1 cells were cultured on a 4-well chamber slide (Nunc) at a cell density of 2500 cells/cm^2 to confluent, after which 1,25-dihydroxyvitamin D3 was added at a final concentration of […] for each medium change.

CL-1 cells [3] = assay: Alizarin red S staining of CL-1 nodules; assay type: cell-based, mouse; conditions: 10 mM in medium, cultured one month
Procedure: CL-1 cells were similarly cultured in the medium supplemented with 10 mM β-glycerophosphate. Then, they were fixed in 4% paraformaldehyde (pH 7.4), washed with distilled water, then stained with a 1% Alizarin red S (Merck) solution for 5 minutes, washed with water and then observed with naked eyes and with an optical microscope.

CL-1 cells [4] = assay: Stainability of CL-1 cells with Alcian blue (pH 1.0), cartilage-inducing ability; assay type: cell-based, mouse; conditions: for Alcian blue (pH 1.0)-positive nodules: morphologically, compared with the medium alone
Procedure: In order to examine whether or not CL-1 cells can be used as an in vitro screening system for cartilage-inducing materials, effects of hTGF-β, known to have cartilage-inducing ability (J. Biol. Chem. 261, 5693 (1986)) on the stainability of CL-1 cells with Alcian blue (pH 1.0) were examined. Namely, CL-1 cells were cultured on a 24-well plate (CORNING) at a cell density of 2500 cells/cm^2 to confluent, at which human transforming growth factor-β1 (hTGF-β1; AUSTRAL Biologicals) was added at a concentration of 0.1, 1.0 or 10 ng/ml, and cultivation took place for 3 weeks after the start of the addition with the medium being changed every 2 or 3 days. The addition of hTGF-β1 was performed for each medium change. After completion of cultivation, cells were fixed in 4% paraformaldehyde (Wako Pure Chemical Industries) and washed with water, then treated with 0.1 N hydrochloric acid (Wako Pure Chemical Industries) for 3 minutes, and then stained overnight with an Alcian blue (pH 1.0) solution (concentration: 1%). After completion of staining, samples were washed with distilled water three times and air-dried. The dried samples were immersed in 300 μl of a 6 M guanidine hydrochloride solution (Wako Pure Chemical Industries) for 3 hours and stirred, after which the absorbance of the guanidine hydrochloride solution at 620 nm was determined.

ATDC-5 cells = assay: Stainability of ATDC-5 cells with Alcian blue (pH 1.0); assay type: cell-based; conditions: 10 μg/ml insulin and 0.1 to 10 ng/ml hTGF-β1, 7 days post confluent
Procedure: ATDC-5 cells known to differentiate into chondrocytes in the presence of insulin (Cell Diff. Dev. 30, 109 (1990); available from the Cell Bank of The Institute of Physical and Chemical Research) were also cultured by the same procedure in the presence of 10 μg/ml of insulin and 0.1 to 10 ng/ml of hTGF-β1 for 7 days post confluent to examine the stainability with Alcian blue (pH 1.0).

CL-1 cells [5] = assay: Uptake of 35S-labeled sulfuric acid into CL-1 cell layers; assay type: cell-based, mouse
Procedure: CL-1 cells were plated on a polystyrene 96-well plate (Wallac) at a cell density of 2000 cells/well, and incubated in (α-MEM (GIBCO) containing 10% inactivated serum (Intergen), 100 U/ml penicillin and 100 μg/ml streptomycin in an incubator at 37° C., 5% CO2, with the medium being changed with a fresh medium 3 times a week to reach confluency. After confluency was confirmed with a microscope, the medium was changed with a fresh medium containing human TGF-β1 (AUSTRAL BIOLOGICALS) at a concentration of 0.1, 1.0 or 10 ng/ml and incubation was continued. After 24 hours, ^35S-labeled sulfuric acid (Amersham) was added at 0.5 μCi/well and incubation was continued for further 24 hours. Then, the medium was changed with 200 μl of 0.1 M phosphate buffer (pH 7.4) containing 5% paraformaldehyde (Wako Pure Chemical Industries) and 0.4% cetylpyridinium chloride (Wako Pure Chemical Industries) for fixation at room temperature for 2 hours. After CL-1 cell layers were washed once with the same buffer, 100 μl of a liquid scintillator (Optiphase supermix, available from Wallac) was added to each well followed by stirring, so that the radioactivity of ^35S-labeled sulfuric acid incorporated into CL-1 cell layers was determined by a liquid scintillation counter (Microbeta 1450, available from Wallac).

CL-1 cells [6] = assay: Cartilage destruction: Alcian blue stainability of hTGF-β1-enhanced CL-1 cells; assay type: cell-based, mouse
Procedure: This example relates to an examination about whether or not cartilage-like nodules formed by culturing CL-1 cells in the presence of hTGF-β1 are destroyed by inflammatory cytokines IL-1 or TNF-α. CL-1 cells were cultured on a 24-well plate (CORNING) at a cell density of 2500 cells/cm^2 to confluent, after which hTGF-β1 was daily added to the medium for 5 days at a final concentration of 1.0 ng/ml. Then, mouse interleukin 1α (mIL-1α; R & D systems) and mouse tumor necrosis factor-a (mTNF-α; R & D systems) were daily added to the medium for 5 days at a final concentration of 0.1, 1.0 or 10 ng/ml, and the cells were cultured. Then, the stainability of CL-1 cells with Alcian blue (pH 1.0) was determined as described hereinbefore. As a result, the stainability with Alcian blue (pH 1.0) decreased in the presence of mIL-1α at 0.1 ng/ml or more (see FIG. 15) and mTNF-α at 1.0 ng/ml or more (see FIG. 16).

C=C1/C(=C\C=C2/CCC[C@]3(C)[C@@H]([C@H](C)CCCC(C)(C)O)CC[C@@H]23)C[C@@H](O)C[C@@H]1O [1,25-dihydroxyvitamin D3]
amount of Ca deposition (CL-1 cells [1]): significantly inhibited | intracellular accumulation of Oil red O-positive lipid droplets (CL-1 cells [2]; 10^−3 M at each medium change, 3 weeks): remarkably inhibits

O=P(O)(O)OC(CO)CO [β-glycerophosphate]
Alizarin red S staining of nodules (CL-1 cells [3]): turned positive

hIGF-I: human insulin-like growth factor-I (CHEMICON INTERNATIONAL)
accumulation of Oil red O-positive lipid droplets in CL-1 cells (CL-1 cells [2]; compared with the medium alone): promoted | stainability with Alcian blue (pH 1.0) (CL-1 cells [4]; 100 ng/ml, similar test, 3 weeks): increase | Alcian blue (pH 1.0)-positive nodules (CL-1 cells [4]; 3 weeks post confluent): clearly increased

hTGF-β1: human transforming growth factor-β1 (AUSTRAL Biologicals), known to have cartilage-inducing ability
stainability of ATDC-5 cells with Alcian blue (pH 1.0) (ATDC-5 cells): dose-dependently decreased | stainability with Alcian blue (pH 1.0) (CL-1 cells [4]; 0.1, 1.0 or 10 ng/ml added at each medium change, 3 weeks post confluent, absorbance at 620 nm): increased dose-dependently | Alcian blue (pH 1.0)-positive nodules (CL-1 cells [4]; 3 weeks post confluent): clearly increased | increase of the uptake of 35S-labeled sulfuric acid (CL-1 cells [5]; 0.1, 1.0 or 10 ng/ml, FIG. 21): about double | concentration with statistically significant increase of the uptake of 35S-labeled sulfuric acid (CL-1 cells [5]; vs control containing the medium alone, 48 h after addition): ≥ 0.1 ng/mL

B1: mIL-1α: mouse interleukin 1α (R & D systems), inflammatory cytokine (protein, UniProt P01582 115-270, looked up)
Interleukin-1 alpha: SAPYTYQSDLRYKLMKLVRQKFVMNDSLNQTIYQDVDKHYLSTTWLNDLQQEVKFDMYAYSSGGDDSKYPVTLKISDSQLFVSAQGEDQPVLLKELPETPKLITGSETDLIFFWKSINSKNYFTSAAYPELFIATKEQSRVHLARGLPSMTDFQIS
destruction of cartilage-like tissues formed by CL-1 cells in the presence of human TGF-β1 (CL-1 cells [6]): destroyed | concentration at which stainability with Alcian blue (pH 1.0) decreased (CL-1 cells [6]; daily added for 5 days after 5 days of hTGF-β1 1.0 ng/ml): ≥ 0.1 ng/ml

Reference: patent publication US7037717B1, “Cell line and screening method with the use of the same” (Chugai Seiyaku Kabushiki Kaisha, priority 1997, dated 2006)
